Data published in paper PMC4506051, “Pharmacokinetic Profiles of Active Ingredients and Its Metabolites Derived from Rikkunshito, a Ghrelin Enhancer, in Healthy Japanese Volunteers: A Cross-Over, Randomized Study” (PLoS ONE, 2015).

How the values were obtained:
[1] = Method validation: stability in blood; settings: atractylodin 1.00 ng/mL
[2] = Exploratory trial: plasma concentration of rikkunshito ingredients after single oral rikkunshito 7.5 g; type: in vivo; settings: human, in vivo
Method in brief: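 Plasma and urine levels were measured by LC–MS/MS after one 7.5 g oral dose of rikkunshito. Samples were collected before dosing and at 0.5–8 h for blood, or in 0–4 h and 4–8 h fractions for urine. Synephrine was determined after protein-removal plate cleanup; the other ingredients after β-glucuronidase deconjugation (2 h, 37°C) and SPE.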

[3] = Method validation: stability in standard, stock and working solution; settings: at room temperature for 24 h
[4] = Method validation: post-preparative stability (autosampler)
[5] = Dose proportionality (linearity) test by power model for C max and AUC0-last; settings: for Dose proportionality test using power model, Inference: linear when 90% CI of β included 1, CIlower ≥0.8, and CIupper ≤1.25; for Dose proportionality test using power model, β: rikkunshito 2.5, 5.0 or 7.5 g
Experimental: The dose proportionality was analyzed via a power model [21, 22]. […] Evaluation of linearity of the dosage-exposure relationship was conducted with Phoenix WinNonlin and SAS 9.2 (SAS Institute, Inc., Cary, NC).

[6] = Method validation: short-term stability in plasma
[7] = Method validation: freeze-thaw stability in plasma; settings: deep freezer
[8] = 7.5 g dosage; cited from earlier work
[9] = Method validation: long-term stability in plasma; settings: deep freezer

For `C/C=C/C#CC#C/C=C/c1ccco1` [Atractylodin], the “Stability in blood, remaining ratio (RR)” value ([1]; at room temperature for 2 h) was 90.3%, the “Stability in blood, RR” value ([1]; on ice for 2 h) was 93.8% and the concentration at 0 h ([2]; 0 h (preadministration), single oral rikkunshito 7.5 g, mean ± S.D., n = 4, read-out: Plasma concentration, 0 h) was 0.328 ± 0.655 ng/mL. For the same compound, the concentration at 0.5 h ([2]; 0.5 h after single oral rikkunshito 7.5 g, mean ± S.D., n = 4, read-out: Plasma concentration, 0.5 h) was 1.19 ± 0.913 ng/mL, the concentration at 1 h ([2]; 1 h after single oral rikkunshito 7.5 g, mean ± S.D., n = 4) was 1.38 ± 1.15 ng/mL and the concentration at 2 h ([2]; 2 h after single oral rikkunshito 7.5 g, mean ± S.D., n = 4, read-out: Plasma concentration, 2 h) was 0.863 ± 1.01 ng/mL. For the same compound, the concentration at 4 h ([2]; 4 h after single oral rikkunshito 7.5 g, mean ± S.D., n = 4, read-out: Plasma concentration, 4 h) was 1.14 ± 0.899 ng/mL, the concentration at 8 h ([2]; 8 h after single oral rikkunshito 7.5 g, mean ± S.D., n = 4, read-out: Plasma concentration, 8 h) was 0.295 ± 0.59 ng/mL and the Cmax ([2]; rikkunshito 7.5 g, four subjects, highest mean concentration over 0–8 h, read-out: C max in plasma (exploratory trial)) was 1.38 ng/mL. The “Short-term stability of standard solution, RR” value ([3]; atractylodin 1.00 ng/mL) was 104.6%, the “Short-term stability of standard solution, RR” value ([3]; atractylodin 5000 ng/mL) was 106.7% and the “Post-preparative stability, RE” value ([4]; atractylodin 0.600 ng/mL, autosampler set at 4°C for 24 h) was -3.8%. The “Post-preparative stability, RE” value ([4]; atractylodin 0.600 ng/mL, autosampler set at 4°C for 48 h) was 4.0%, the “Post-preparative stability, RE” value ([4]; atractylodin 16.0 ng/mL, autosampler set at 4°C for 24 h) was 9.0% and the “Post-preparative stability, RE” value ([4]; atractylodin 16.0 ng/mL, autosampler set at 4°C for 48 h) was 8.7%. The “Dose proportionality test using power model, Inference” value ([5]; AUC0-last) was “Nonlinear”, the “Dose proportionality test using power model, β” value ([5]; AUC0-last) was 1.60 and the “Dose proportionality test using power model, Inference” value ([5]; Cmax) was “Linear^a”. For the same compound, the “Dose proportionality test using power model, β” value ([5]; Cmax) was 0.988, the “Short-term stability, RR” value ([6]; atractylodin 0.600 ng/mL, deep freezer (−90.4°C to −69.5°C) for 4 h) was 95.6% and the “Short-term stability, RR” value ([6]; atractylodin 0.600 ng/mL, deep freezer for 24 h) was 101.5%. The “Short-term stability, RR” value ([6]; atractylodin 16.0 ng/mL, deep freezer (−90.4°C to −69.5°C) for 4 h) was 101.9%, the “Short-term stability, RR” value ([6]; atractylodin 16.0 ng/mL, deep freezer for 24 h) was 102.9% and the “Freeze-thaw stability, RR” value ([7]; atractylodin 0.600 ng/mL, 2 cycles) was 109.3%. The “Freeze-thaw stability, RR” value ([7]; atractylodin 0.600 ng/mL, 3 cycles) was 115.1%, the “Freeze-thaw stability, RR” value ([7]; atractylodin 16.0 ng/mL, 2 cycles) was 122.6% and the “Freeze-thaw stability, RR” value ([7]; atractylodin 16.0 ng/mL, 3 cycles) was 133.6%. The “Maximum plasma concentration in the preliminary pharmacokinetics study” value [8] was 1.84 ± 0.626 ng/mL, the “Long-term stability, RR” value ([9]; atractylodin 0.600 ng/mL, 15 days) was 98.4% and the “Long-term stability, RR” value ([9]; atractylodin 0.600 ng/mL, 29 days) was 88.7%. The “Long-term stability, RR” value ([9]; atractylodin 0.600 ng/mL, 57 days) was 101.4%, the “Long-term stability, RR” value ([9]; atractylodin 0.600 ng/mL, 169 days) was 95.2% and the “Long-term stability, RR” value ([9]; atractylodin 16.0 ng/mL, 15 days) was 98.6%. The “Long-term stability, RR” value ([9]; atractylodin 16.0 ng/mL, 29 days) was 98.6%, the “Long-term stability, RR” value ([9]; atractylodin 16.0 ng/mL, 57 days) was 109.4 and the “Long-term stability, RR” value ([9]; atractylodin 16.0 ng/mL, 169 days) was 102.8%.
